Test results as given in patent US6946480B2, “Glutaminyl based DPIV inhibitors” (priority 2002, dated 2005).
Entries after “also recorded” stand apart in the source; their conditions may differ.

Key:
[1] = In vivo inactivation (degradation) after oral administration to Wistar rats, LC/MS; conditions: LC/MS of plasma
Description: Glutaminyl thiazolidine was administered to Wistar rats orally as described in example 9.
After application of placebo or glutaminyl thiazolidine, arterial blood samples were taken at 2.5, 5, 7.5, 10, 15, 20, 40, 60 and 120 min from the carotid catheter of the conscious unrestrained rats to determine the formation of degradation products of glutaminyl thiazolidine.
For analysis, simple solid phase extraction procedure on C18 cartridges was used to isolate the compounds of interest from the plasma. The extracts were analysed using reversed-phase liquid chromatography on Lichrospher 60 RP Select B column hyphenated with tandem mass spectrometry operating in the APCl positive mode. An internal standard method was used for quantification.

[2] = Plasma stability (half-life of inhibitory potency in human plasma); assay type: in vitro ADME
Description: In order to investigate the stability of glutaminyl pyrrolidine or glutaminyl thiazolidine in human plasma, the activity of DPIV in plasma was determined at a defined time. The average DPIV activity in human plasma was determined as 43.69 U/ml. In the working solution, the plasma was diluted in 0.9% NaCl to fix the DPIV activity level at 25 U/ml.
Plasma and glutaminyl pyrrolidine or glutaminyl thiazolidine in different concentrations (5*10^−5, 2.5*10^−5, 1.25*10^−5M in plasma) were incubated at 37° C. At defined time points samples were taken using a pipette roboter (Gilson 215, Liquid handler, Gilson) and transferred in a microtiter plate containing 5*10^−5M glycylprolylaminomethylcoumarine in 0.9% NaCl+015% Brij per well. After 6 min the reaction was stopped by addition of isoleucylthiazolidine (5*10^−5M in 0.9% NaCl solution).
Fluorescence measurement was performed against 0.9% NaCl in plasma (reference standard) using a plate reader (HTS7000plus, Applied Biosystems, Weiterstadt, Germany). The half-life of the inhibitory potency of glutaminyl pyrrolidine or glutaminyl thiazolidine was calculated by plotting the enzyme activity versus reaction time.

[3] = listed as Glutaminyl thiazolidine

degradation in vivo [1]: a degradation of the compound was found | degradation in vivo [1, 3]: degraded | degradation product found in vivo [1, 3]: pyroglutaminyl thiazolidine | half-life of the inhibitory potency in human plasma ([2]; 37° C., 5*10^−5, 2.5*10^−5, 1.25*10^−5M): no half-time could be determined | stability in human plasma ([2]; over 22 hours): stable in human plasma over 22 hours
Structure (SMILES): NC(=O)CCC(N)C(=O)N1CCSC1 (stereo not drawn) [glutaminyl thiazolidine]
degradation product found in vivo [1]: pyroglutaminyl thiazolidine; also recorded: pyroglutamyl thiazolidine
